Patent publication US20200368315A1, “ANTIMICROBIAL PEPTIDES AND ADMIXTURES THEREOF SHOWING ANTIMICROBIAL ACTIVITY AGAINST GRAM-NEGATIVE PATHOGENS” (priority 2017, published 2020)
≈ marks a conversion by molar mass, not a printed value. Where “and” joins values, the source holds several entries; their conditions need not be identical. Identical values can stand only once. Like-named read-outs stand apart in the source and are kept apart here.

Experiments:
[1] = system: E. coli LMG15862; assay type: cell-based, Escherichia coli; conditions: nisin + GNP
Procedure, shortened: (§1)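 Chequerboard broth microdilution in MHB: nisin and GNPs each two-fold serially diluted starting from their individual MICs, bacterial suspension added to 100 µL final volume. Synergy scored by FIC index (sum of combination MIC/single MIC for each agent): ≤0.5 synergistic, 0.5–1 additive, 1–2 indifferent, >2 antagonistic.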

[2] = system: Escherichia coli B1927, clinical isolate; experiment: microbe, parasite or virus in culture; conditions: for MIC: Escherichia coli
Description: (§2) Testing was performed according to CLSI (Clinical Laboratory Standards Institute) guidelines. Read out of the study was determination of MIC—minimal inhibitory concentration expressed in μg/mL.
(§3) Out of these PBS solutions, 76.8 μL was transferred to 1423.2 μL of MH media in deep well for testing compound alone. […] Out of these working solutions 100 μL were transferred to wells in the third column of 96-well assay plates. Assay plates were previously filled with 50 μL of MH media in all wells except for the wells in the third column.
(§4) Microorganisms used were all revived from skim milk storage at −70° C. by plating them on MH agar plates. The following day a single colony of each microorganism was again streaked on fresh agar plates. The next day, using direct colony suspension method, broth solutions that achieve turbidity equivalent to 0.5 McFarland standard for each microorganism were prepared. […] Out of these suspensions, actual inoculums were prepared by diluting them 100× with MH media giving final microorganism count of 2-8×10^5 CFU/mL. For each strain of microorganisms, 20 mL of these inoculum solutions were prepared. From the second to the twelfth column of 96-well plates, 50 μL of these solutions were transferred per well. To the first column, 50 μL per well of pure growth media was added. In this manner the first column was used as sterility control of media used, the second column was used as control of microorganism's growth and the rest of the plate was used for MIC determination. All plates were incubated for 16-24 h at 37° C.
(§5) MIC value was determined by visual inspection of bacterial growth within 96-well plates. The first column in which there was no visible growth of bacteria was determined as MIC value for peptide or combination tested in that particular row.

[3] = system: Pseudomonas aeruginosa ATCC BAA-2108; experiment: microbe, parasite or virus in culture; conditions: for MIC: Pseudomonas aeruginosa
Description: as §2, §3, §4, §5

[4] = system: Pseudomonas aeruginosa B1954, clinical isolate; experiment: microbe, parasite or virus in culture; conditions: for MIC: Pseudomonas aeruginosa
Description: as §2, §3, §4, §5

[5] = system: Acinetobacter baumannii ATCC BAA-1605; experiment: microbe, parasite or virus in culture; conditions: for MIC: Acinetobacter baumannii
Description: as §2, §3, §4, §5

[6] = system: Klebsiella pneumoniae B1945, clinical isolate; experiment: microbe, parasite or virus in culture; conditions: for MIC: Klebsiella pneumoniae
Description: as §2, §3, §4, §5

[7] = system: Klebsiella pneumoniae ATCC BAA-2524; experiment: microbe, parasite or virus in culture; conditions: for MIC: Klebsiella pneumoniae
Description: as §2, §3, §4, §5

[8] = system: Escherichia coli ATCC BAA-2452; experiment: microbe, parasite or virus in culture; conditions: for MIC: Escherichia coli
Description: as §2, §3, §4, §5

[9] = system: Acinetobacter baumannii B2026, clinical isolate; experiment: microbe, parasite or virus in culture; conditions: for MIC: Acinetobacter baumannii
Description: as §2, §3, §4, §5

[10] = system: K. pneumoniae LMG20218; assay type: cell-based, Klebsiella pneumoniae; conditions: nisin + GNP
Procedure, shortened: as §1

[11] = system: A. baumannii LMG01041; assay type: cell-based, Acinetobacter baumannii; conditions: nisin + GNP
Procedure, shortened: as §1

[12] = system: P. aeruginosa LMG 6395; assay type: cell-based, Pseudomonas aeruginosa; conditions: nisin + GNP
Procedure, shortened: as §1

[13] = system: L. lactis MG1363; experiment: microbe, parasite or virus in culture; conditions: Lactococcus lactis, MG1363, read-out: MIC value of antimicrobial compounds alone
[14] = system: Acinetobacter baumannii ATCC 17978; experiment: microbe, parasite or virus in culture; assay type: cell-based; conditions: Acinetobacter baumannii, ATCC17978
Description: as §2, §3, §4, §5

[15] = system: Escherichia coli ATCC 25922; experiment: microbe, parasite or virus in culture; assay type: cell-based; conditions: Escherichia coli, ATCC25922
Description: as §2, §3, §4, §5

[16] = system: Klebsiella pneumoniae ATCC 700603; experiment: microbe, parasite or virus in culture; assay type: cell-based; conditions: Klebsiella pneumoniae, ATCC700603
Description: as §2, §3, §4, §5

[17] = system: Pseudomonas aeruginosa ATCC 27853; experiment: microbe, parasite or virus in culture; assay type: cell-based; conditions: Pseudomonas aeruginosa, ATCC27853
Description: as §2, §3, §4, §5

[18] = Cell viability (ATP levels, CellTiter-Glo); conditions: human

CC[C@@H](C)[C@@H](NC(=O)[C@@H](CCCNC(=N)N)NC(=O)[C@@H](CCCNC(=N)N)NC(=O)[C@@H](Cc1ccccc1)NC(=O)[C@@H](CC(C)C)NC(=O)[C@@H](CCCNC(=N)N)NC(=O)[C@H](N)CCCNC(=N)N)C(=O)N[C@H](CC(C)C)C(=O)N[C@H](CCCNC(=N)N)C(=O)N[C@H](Cc1c[nH]c2ccccc12)C(=O)N[C@H](CC(C)C)C(N)=O [GNP-D6]
FICI [1]: 0.375 | MIC value ([2]; alone, MDR E. coli B1927): 1.27 µM | MIC value ([3]; alone, MDR P. aeruginosa ATCC BAA-2108): 5.05 µM | MIC value ([4]; alone, MDR P. aeruginosa B1954): 2.53 µM | MIC value ([5]; alone, MDR A. baumannii ATCC BAA-1605): 5.05 µM | MIC value ([6]; alone, MDR K. pneumoniae B1945): 5.05 µM | MIC value ([7]; alone, MDR K. pneumoniae ATCC BAA-2524): 2.53 µM | MIC value ([8]; alone, MDR E. coli ATCC BAA-2452): 1.27 µM | MIC value ([9]; alone, A. baumannii B2026, colistin resistant): 2.53 µM | FICI [10]: 0.375 | FICI [11]: 0.313 | FICI [12]: 0.25

CN[C@H](CC(C)C)C(=O)N[C@H]1C(=O)N[C@@H](CC(N)=O)C(=O)N[C@H]2C(=O)N[C@H]3C(=O)N[C@H](C(=O)N[C@H](C(=O)O)c4cc(O)cc(O)c4-c4cc3ccc4O)[C@H](O)c3ccc(c(Cl)c3)Oc3cc2cc(c3O[C@@H]2O[C@H](CO)[C@@H](O)[C@H](O)[C@H]2O[C@H]2C[C@](C)(N)[C@H](O)[C@H](C)O2)Oc2ccc(cc2Cl)[C@H]1O [Vancomycin, reference compound]
MIC [2]: 128 µg/mL | MIC ([2]; read-out: MIC value): 88.3 µM | MIC ([3]; ATCCBAA2108): > 128 µg/mL | MIC ([3]; ATCCBAA2108, read-out: MIC value): > 88.3 µM | MIC [4]: 128 µg/mL | MIC ([4]; read-out: MIC value): 88.3 µM | MIC ([5]; ATCCBAA1605): 64 µg/mL | MIC ([5]; ATCCBAA1605, read-out: MIC value): 44.2 µM | MIC [6]: > 128 µg/mL | MIC ([6]; read-out: MIC value): > 88.3 µM | MIC ([7]; ATCCBAA2524): > 128 µg/mL | MIC ([7]; ATCCBAA2524, read-out: MIC value): > 88.3 µM | MIC ([8]; ATCCBAA2452): > 128 µg/mL | MIC ([8]; ATCCBAA2452, read-out: MIC value): > 88.3 µM | MIC [9]: 32 µg/mL | MIC ([9]; read-out: MIC value): 22.1 µM | MIC [13]: 0.125 µM (≈ 0.181 µg/mL) | MIC [14]: 128 µg/mL | MIC [15]: > 128 µg/mL | MIC [16]: > 128 µg/mL | MIC [17]: > 128 µg/mL | IC50 [18]: > 44.2 µM and > 64 µg/mL
